In ChEMBL document CHEMBL5131418, “Streptooctatins A and B, fusicoccane-type diterpenoids with autophagic activity from Streptomyces sp. KCB17JA11” (Bioorg Med Chem Lett, 2022):
Calls of active or inactive are those of the source. The rule behind the calls is not given here.

Columns and labels:
HeLa [1] = assay: Cytotoxicity against human HeLa cells assessed as reduction in cell viability up to 100 uM; assay type: toxicity, cell-based
HeLa [2] = assay: Induction of autophagy in human HeLa cells stably expressing EGFP-LC3 assessed as increase in EGFP-LC3 puncta formation at 25 uM incubated for 24 hrs by fluorescence microscopic analysis; assay type: functional, cell-based
HeLa [3] = assay: Cytotoxicity against human HeLa cells assessed as reduction in cell number at 100 uM; assay type: toxicity, cell-based
HeLa [4] = assay: Induction of autophagy in human HeLa cells assessed as increase in LC3-II protein expression level at 10 to 50 uM uM incubated for 24 hrs by western blot analysis; assay type: functional, cell-based; details: dose 10-50 µM

Compound | Activity (HeLa [1]) | Activity (HeLa [2]) | Activity (HeLa [3]) | Activity (HeLa [4])
CCCC(=O)[C@@H](C)[C@H]1O[C@@](O)([C@H](C)C(=O)OC[C@@H](CO)[C@H]2CC[C@]3(C)C[C@@H]4[C@H](CO)C[C@@H](O)[C@H]4[C@@](C)(O)C/C=C/23)[C@H](C)C[C@H]1C | Non-Toxic | Active | Toxic | Active
CCC(=O)[C@@H](C)[C@H]1O[C@@](O)([C@H](C)C(=O)OC[C@@H](CO)[C@H]2CC[C@]3(C)C[C@@H]4[C@H](CO)C[C@@H](O)[C@H]4[C@@](C)(O)C/C=C/23)[C@H](C)C[C@H]1C | Non-Toxic | Active | Toxic | Active
CC(C)[C@H]1CC[C@]2(C)C[C@@H]3[C@H](CO)C[C@@H](O)[C@H]3[C@@](C)(O)C/C=C/12 | Non-Toxic |  |  | 
